{"source": "paper PMC8241751", "about": "“Influence of the Dabcyl group on the cellular uptake of cationic peptides: short oligoarginines as efficient cell-penetrating peptides” (Amino Acids, 2021)", "key": {"CHO-K1 cells": {"tested_on": "CHO-K1 cells", "experiment": "Relative quantification of total internalised peptide by flow cytometry", "settings": "CHO-K1, 1 h, DMEM-F12, internalisation ratio by flow cytometry, intact cells, 20.000 cells", "description": "After incubation and washing the cells with HBSS, 500 μL 0.05% trypsin/EDTA 0.05% (37 °C) or 500 µL pronase 0.05% in 100 mM Tris-buffer (4 °C) was added for 5 min to hydrolyze the remaining extracellular peptide, the membrane-bound peptide and to detach cells. After addition of 100 µL enzyme inhibitors (complete mini at 4 °C (Roche) or trypsin inhibitor (soybean inhibitor 5 mg/mL) at 37 °C mixed with 100 μL bovine serum albumin (1 mg/mL). Cells were transferred into a microtube, centrifuged, washed with 1 mL 50 mM Tris-buffer pH 7.4, 0.1% BSA, and the cell pellet was suspended in 400 μL of PBS. The fluorescence of individual cells was analysed with a FACS Calibur flow cytometer. 20.000 cells were measured for each experimental condition. The mean fluorescence of a sample was obtained by subtracting the autofluorescence of cells from the measured mean fluorescence of cells in the presence of the peptide."}, "HL-60 cells [1]": {"tested_on": "HL-60 cells", "experiment": "Cellular uptake by flow cytometry on HL-60 cells", "format": "cell-based, human", "settings": "90 min, 37 °C, serum-free", "description": "HL-60 cells were cultured as described above. To study the cellular uptake of fluorescent labelled compounds, 10^5 cells per well were plated on 24-well plates. After 24 h incubation at 37 °C, cells were treated with the compounds solved in the corresponding serum-free media for 90 min. The cellular uptake was analysed at 1, 5 and 10 µM concentrations. Cells treated with serum-free media for 90 min were used as control. After incubation, treatment solutions were removed and the cells were treated with 100 μL trypsin for 2 min to remove the membrane proteins in order to eliminate non-specific binding of conjugates. The effect of trypsin was terminated by 900 μL HPMI (glucose, NaHCO3, NaCl, HEPES, KCl, MgCl2, CaCl2, Na2HPO4·2H2O) (Kapus et al. [1994]) containing 10% foetal calf serum, and the cells were transferred from the plate to FACS-tubes. Cells were centrifuged at 216 g at 4 °C for 5 min and the supernatant was removed. After this procedure, cells were resuspended in 500 µL HPMI, and the intracellular fluorescence intensity of HL-60 cells was monitored (on channel FITC LP505; emission at λ = 505 nm; LP 505, BP 530/30) by flow cytometry (BD LSR II, BD Bioscience, San Jose, CA, equipped with 488 nm; Coherent Sapphire, 22 mW laser.) which is proportional to the cellular uptake. Data were analysed with FACSDiVa 5.0 software."}, "HeLa cells": {"tested_on": "HeLa cells", "experiment": "Confocal microscopy of internalisation into HeLa cells", "format": "cell-based, human", "settings": "5 μM, serum free (–) medium, 37 °C", "description": "HeLa cells (2.0 × 10^5 cells) seeded in 35-mm glass-bottomed dishes (Iwaki) were cultured at a 37 °C incubator for 24 h. The cells were then incubated with peptide in α-MEM( +) and α-MEM(–) for 30 min at 37 °C or 4 °C. After washing with PBS( +) containing 0.5% (w/v) heparin, intracellular distribution of the fluorescently-labelled peptides was analysed without fixing using a confocal microscope (FV1000, Olympus). For time-lapse imaging, the cells were placed at 37 °C in a microchamber (MI-IBC-IF, Olympus) attached on the stage of the inverted microscope. The cells were then treated with 5 µM of Dabcyl–Arg6–Lys(Rh)–NH2 or Dabcyl–Arg4–Lys(Cf)–NH2 in α-MEM( +) or α-MEM(–). Time 0 represents the image immediately after the addition of conjugates."}, "HL-60 cells [2]": {"tested_on": "HL-60 cells", "experiment": "In vitro cytostatic activity (MTT) on HL-60", "format": "cell-based, human", "settings": "HL-60; 3 h incubation, then 3 days in serum-containing medium; MTT assay; ± sd, three independent experiments with four parallels", "description": "The cells (HL-60 or MCF-7) were grown to confluency and were plated into 96-well plate with initial cell number of 5 × 10^3 per well. After 24 h incubation at 37 °C, cells were treated with the compounds at 1.28 × 10^–3–100 μM concentration range for 3 h in 200 μL final volume. Control cells were treated with serum free medium at 37 °C for 3 h. After incubation the cells were washed twice with serum free medium. For the analysis of the in vitro cytostatic effect, cells were cultured for an additional 72 h in serum containing medium. On day 4, MTT assay was carried out to determine the IC50 values of the compounds. Briefly, 45 μL of MTT solution was added to each well (2 mg/mL, dissolved in serum-free medium). Following the 4 h incubation, plates were centrifuged at 900 g for 5 min, and the supernatant was removed. The precipitated purple crystals were dissolved in 100 μL DMSO and the absorbance was determined at λ = 540 nm and λ = 620 nm using ELISA plate reader (iEMSReader, Labsystems, Finland). The percent of cytostasis was calculated using the following equation: Cytostatic effect (%) = [1 − (ODtreated/ODcontrol)] × 100; where ODtreated and ODcontrol correspond to the optical densities of the treated and the untreated control cells, respectively. In each case three independent experiments were carried out with four parallel measurements. […] The curves were defined using MicrocalTM Origin (version 9.2) software: cytostasis was plotted as a function of concentration, fitted to a sigmoidal curve, and based on this curve, the IC50 value was determined."}}, "note": "Where a SMILES comes first, the peptide text is derived from it. The star is where a group is joined. 5FAM = O=C1OC2(c3ccc(O)cc3Oc3cc(O)ccc32)c2ccc(C(=O)*)cc21; X1 = CN(C)c1ccc(/N=N/c2ccc(C(=O)*)cc2)cc1", "data": [{"smiles": "CN(C)c1ccc(/N=N/c2ccc(C(=O)N[C@@H](CCCNC(=N)N)C(=O)N[C@@H](CCCNC(=N)N)C(=O)N[C@@H](CCCNC(=N)N)C(=O)N[C@@H](CCCNC(=N)N)C(=O)N[C@@H](CCCNC(=N)N)C(=O)N[C@@H](CCCNC(=N)N)C(=O)N[C@@H](CCCCNC(=O)c3ccc4c(c3)C(=O)OC43c4ccc(O)cc4Oc4cc(O)ccc43)C(N)=O)cc2)cc1", "note": "[Dabcyl–Arg6–Lys(Cf)–NH2] (X1-RRRRRRK(5FAM)-NH2)", "values": [{"measurement": "4 °C/37 °C (Flow cyto.)", "setting": "CHO-K1 cells; [peptide] 1 μM", "value": 0.14}, {"measurement": "4 °C/37 °C (Flow cyto.)", "setting": "CHO-K1 cells; [peptide] 2.5 μM", "value": 0.04}, {"measurement": "4 °C/37 °C (Flow cyto.)", "setting": "CHO-K1 cells; [peptide] 5 μM", "value": 0.05}, {"measurement": "4 °C/37 °C (Flow cyto.)", "setting": "CHO-K1 cells; [peptide] 10 μM", "value": 0.04}, {"measurement": "Cellular uptake, times higher than that of octaarginine", "setting": "HL-60 cells [1]; HL-60, 5 μM", "value": 4, "unit": "times"}, {"measurement": "Cellular uptake, times higher than that of octaarginine", "setting": "HL-60 cells [1]; HL-60, 10 μM", "value": 1.5, "unit": "times"}, {"measurement": "Time of binding to the cell membrane", "setting": "HeLa cells", "value": 0.5, "unit": "min"}, {"measurement": "Time of internalisation", "setting": "HeLa cells", "value": "≤ 1.5", "unit": "min"}, {"measurement": "IC50", "setting": "HL-60 cells [2]", "value": "21.8 ± 8.2", "unit": "µM"}]}]}
